Measured values reported in patent US20230058623A1, “NOVEL HETEROARYL-TRIAZOLE COMPOUNDS AS PESTICIDES” (Bayer Aktiengesellschaft, priority 2019, published 2023).

How the values were obtained:
Format in all cases: in vivo
[1] = test system: Rhipicephalus (Boophilus) microplus larvae (strain Parkhurst, resistant against synthetic pyrethroids); test: Rhipicephalus (Boophilus) microplus in-vitro contact test, larval cattle tick; conditions: after 48 hours, read-out: activity (efficacy: larvae dead or moribund); for pest or weed control at 1 µg/cm2, 100 g/ha: application rate 1 μg/cm^2 (=100 g/ha); for pest or weed control at 5 µg/cm2, 500 g/ha: application rate 5 μg/cm^2 (=500 g/ha)
Method in brief: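 Acetone solutions were coated onto glass tube walls, giving 5 μg/cm^2 at 900 ppm. Once dry, 20–50 pyrethroid-resistant Parkhurst larvae were added per tube and held 48 h at 27 °C and 85% RH. Efficacy was scored by negative geotaxis as the percentage of dead or moribund larvae.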

[2] = test system: adult engorged female ticks (Rhipicephalus microplus); test: Rhipicephalus (Boophilus) microplus injection test; conditions: 168 h, application rate 4 μg/tick, egg deposition after 7 days, read-out: activity (efficacy: infertile eggs)
Description: Rhipicephalus (Boophilus) microplus—Injection Test
Solvent: dimethyl sulfoxide
To produce a suitable preparation of active compound, 10 mg of active compound are dissolved in 0.5 mL solvent, and the concentrate is diluted with solvent to the desired concentration.
Five adult engorged female ticks (Rhipicephalus microplus) are injected with 1 μL compound solution into the abdomen. The ticks are transferred into replica plates and incubated in a climate chamber.
After 7 days egg deposition of fertile eggs is monitored. Eggs where fertility is not visible are stored in a climate chamber till hatching after about 42 days. An efficacy of 100% means all eggs are infertile; 0% means all eggs are fertile.

[3] = test system: fall armyworm larvae (Spodoptera frugiperda); test: Spodoptera frugiperda spray test; conditions: 168 h, application rate 100 g/ha, after 7 days, maize leaf sections
Method in brief: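 Maize leaf sections sprayed with compound diluted in water with 1000 ppm emulsifier, then infested with larvae once dry. Mortality (%) scored after 7 days; 100% = all caterpillars killed.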

[4] = test system: adult cat fleas (Ctenocephalides felis); test: Ctenocephalides felis in-vitro contact test, adult cat flea; conditions: application rate 5 μg/cm^2 (=500 g/ha), after 48 hours, read-out: activity (efficacy: fleas dead or moribund)
Method in brief: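 Acetone solutions of compound were coated onto inner walls of glass tubes (900 ppm giving 5 μg/cm^2) and dried; 5-10 adult C. felis were then held 48 h at room temperature. Efficacy = % fleas dead or moribund, judged by inability to escape a 45-50° C heating plate within 5 min.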

[5] = test system: green peach aphid (Myzus persicae); test: Myzus persicae oral test; conditions: 120 h, read-out: activity (mortality)
Method in brief: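 Acetone stock (1 pbw compound/100 pbw solvent) diluted in water; mixed with sugar-supplemented IPL41 medium; parafilm-sealed; mixed aphid population sucks through film; mortality % read at 5 d.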

[6] = test system: adult brown dog ticks (Rhipicephalus sanguineus); test: Rhipicephalus sanguineus in-vitro contact test, adult brown dog ticks; conditions: application rate 5 μg/cm^2 (=500 g/ha), after 48 hours, read-out: activity (efficacy: ticks dead or moribund)
Description: Rhipicephalus sanguineus—In-Vitro Contact Tests with Adult Brown Dog Ticks
9 mg compound is solved in 1 mL acetone and diluted with acetone to the desired concentration. 250 μL of the test solution is filled in 25 mL glass test tubes and homogeneously distributed on the inner walls by rotation and tilting on a shaking device (2 h at 30 rpm). With a compound concentration of 900 ppm, an inner surface of 44.7 cm^2 and a homogeneous distribution, a dose of 5 μg/cm^2 is achieved.
After the solvent has evaporated, each test tube is filled with 5-10 adult brown dog ticks (Rhipicephalus sanguineus), closed with a perforated lid and incubated in a lying position at room temperature and relative humidity. After 48 hours efficacy is determined. The ticks are patted on the ground of the tubes and are incubated on a heating plate at 45-50° C. for at most 5 minutes. Immotile or uncoordinated moving ticks, which are not able to escape the heat by climbing upwards, are marked as dead or moribund.
An efficacy of 100% means all ticks are dead or moribund; 0% means no ticks are dead or moribund.

[7] = test system: adult mosquitoes Aedes aegypti strain MONHEIM; test: Aedes aegypti test (AEDSAE surface treatment & contact assay); conditions: surface concentration 20 mg/m^2, exposure 30 minutes, 24 hours after contact, read-out: efficacy (mortality)
Description: Aedes aegypti Test (AEDSAE Surface Treatment & Contact Assay)
(§1) Solvent: Aceton+2000 ppm rapeseed oil methyl ester (RME)
(§2) In order to produce a sufficient, active ingredient containing solution it is necessary to solve the test compound in the solvent-mix (acetone at 2 mg/ml/RME 2000 ppm). This solution is pipetted onto a glazed tile and after evaporation of the acetone, adult mosquitoes of the species Aedes aegypti strain MONHEIM are placed onto the dried surface. The exposure time is 30 minutes.
(§3) Mortality in percent (%) is determined 24 hours after contact of the insects to the treated surface. 100% mortality means that all tested insects are dead, whereas 0% means that no insect died.

[8] = test system: larvae of the banded cucumber beetle (Diabrotica balteata); test: Diabrotica balteata spray test; conditions: 168 h, application rate 100 g/ha (=32 μg/well), after 7 days, wheat seeds, read-out: activity (efficacy: seedlings grown)
Method in brief: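 Wheat seeds germinated 1 day on agar were sprayed with compound diluted in water with 1000 ppm emulsifier, then infested with 10-20 Diabrotica balteata larvae. Efficacy in % scored after 7 days: 100% = seedlings grown as untreated, uninfected control; 0% = no seedlings grown.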

[9] = test system: green peach aphid (Myzus persicae); test: Myzus persicae spray test; conditions: foliar, 120 h, after 5 days, Chinese cabbage leaf disks; for mortality at 100 g/ha: application rate 100 g/ha, read-out: activity (mortality); for mortality at 500 g/ha: application rate 500 g/ha
Description: Myzus persicae—Spray Test
(§4) To produce a suitable preparation of active compound, 1 part by weight of active compound is mixed with the stated amount of solvents and is diluted with water, containing an emulsifier concentration of 1000 ppm, to the desired concentration. Further test concentrations are prepared by dilution with emulsifier containing water.
Chinese cabbage (Brassica pekinensis) leaf disks infected with all instars of the green peach aphid (Myzus persicae), are sprayed with a preparation of the active ingredient of the desired concentration.
After 5 days mortality in % is determined. 100% means all aphids have been killed and 0% means none of the aphids have been killed.

[10] = test system: larvae of the southern green stink bug (Nezara viridula); test: Nezara viridula spray test; conditions: 96 h, after 4 days, barley plants; for mortality at 100 g/ha: application rate 100 g/ha; for mortality at 500 g/ha: application rate 500 g/ha, read-out: activity (mortality)
Description: Nezara viridula—Spray Test
as §4, with “solvent,” for “solvents”, “and the concentrate” for “and”
Barley plants (Hordeum vulgare) are sprayed with a test solution containing the desired concentration of the active ingredient and are infested with larvae of the southern green stink bug (Nezara viridula).
After 4 days mortality in % is determined. 100% means all the stink bugs have been killed; 0% means none of the stink bugs have been killed.

[11] = test system: adult flies Musca domestica strain WHO-N; test: Musca domestica test (MUSCDO surface treatment & contact assay); conditions: surface concentration 20 mg/m^2, exposure 30 minutes, 24 hours after contact, read-out: efficacy (mortality)
Description: Musca domestica Test (MUSCDO Surface Treatment & Contact Assay)
as §1
as §2, with “flies” for “mosquitoes”, “Musca domestica” for “Aedes aegypti”, “WHO-N” for “MONHEIM”
as §3

Row | Structure (SMILES) | pest or weed control at 1 µg/cm2, 100 g/ha [1] [%] | pest or weed control at 5 µg/cm2, 500 g/ha [1] [%] | pest or weed control at 0.004 mg [2] [%] | mortality at 100 g/ha [3] [%] | pest or weed control at 5 µg/cm2 [4] [%] | mortality at 4 ppm [5] [%] | pest or weed control at 5 µg/cm2, 500 g/ha [6] [%] | mortality at 20 mg/m2 [7] [%] | pest or weed control at 32 µg/disc, 100 g/ha [8] [%] | mortality at 100 g/ha [9] [%] | mortality at 100 g/ha [10] [%] | mortality at 500 g/ha [9] [%] | mortality at 500 g/ha [10] [%] | mortality at 20 mg/m2 [11] [%]
1 | C[C@H](NC(=O)c1cc(C(F)(F)F)cc(C(F)(F)F)c1)c1ncnn1-c1ccc(C(=O)N2CC3(COC3)C2)cn1 [Example I-12] | 100 | 100 | 100 | 100 | 90 | 100 | 100 | 80 to 100 | – | – | – | – | – | –
2 | C[C@H](NC(=O)c1cc(C(F)(F)F)cc(C(F)(F)F)c1)c1ncnn1-c1ccc(C(=O)N2CCOC(C)(C)C2)cn1 [Example I-14, N-[(1S)-1-(1-{5-[(2,2-dimethylmorpholin-4-yl)carbonyl]pyridin-2-yl}-1H-1,2,4-triazol-5-yl)ethyl]-3,5-bis(trifluoromethyl)benzamide] | 100 | 100 | 100 | 83 | 100 | 100 | 100 | – | 100 | 90 | 100 | – | – | –
3 | CON(C)C(=O)c1ccc(-n2ncnc2[C@H](C)NC(=O)c2cc(C(F)(F)F)cc(C(F)(F)F)c2)nc1 [Example I-48] | 100 | 100 | – | 100 | – | 100 | – | 80 to 100 | 100 | – | – | – | – | –
4 | CON(C)C(=O)c1ccc(-n2nc(C)nc2[C@H](C)NC(=O)c2cc(C(F)(F)F)cc(C(F)(F)F)c2)nc1 [Example I-49] | 100 | 100 | – | 100 | – | 100 | – | 80 to 100 | 100 | 90 | – | – | – | –
5 | C[C@H](NC(=O)c1cc(C(F)(F)F)cc(C(F)(F)F)c1)c1ncnn1-c1ccc(C(=O)NC2CCOC2)cn1 (stereo partly shown) [Example I-61] | 90 | 90 | – | 100 | – | 100 | – | 80 to 100 | – | – | – | 90 | 100 | –
6 | C[C@H](NC(=O)c1cc(C(F)(F)F)cc(C(F)(F)F)c1)c1ncnn1-c1ccc(C(=O)NC2CS(=O)(=O)C2)cn1 [Example I-63] | 90 | 90 | – | – | 100 | 100 | – | 80 to 100 | 100 | 90 | – | 90 | – | –
7 | C[C@H](NC(=O)c1cc(C(F)(F)F)cc(C(F)(F)F)c1)c1ncnn1-c1ccc(C(=O)N2CCOC[C@@H]2C)cn1 [Example I-67] | 100 | 100 | – | 100 | 100 | 100 | – | 80 to 100 | 100 | – | – | – | – | 80 to 100
8 | Cc1nc([C@H](C)NC(=O)c2cc(C(F)(F)F)cc(C(F)(F)F)c2)n(-c2ccc(C(=O)N3CCOC[C@@H]3C)cn2)n1 [Example I-68] | 100 | 100 | – | 100 | 100 | – | – | 80 to 100 | 100 | – | – | – | – | –
9 | Cc1nc([C@H](C)NC(=O)c2cc(C(F)(F)F)cc(C(F)(F)F)c2)n(-c2ccc(C(=O)N3CCOC[C@H]3C)cn2)n1 [Example I-72] | 100 | 100 | – | 100 | 100 | – | 100 | – | 100 | – | – | – | – | 80 to 100
10 | C[C@@H]1CN(C(=O)c2ccc(-n3nc(C4CC4)nc3[C@H](C)NC(=O)c3cc(C(F)(F)F)cc(C(F)(F)F)c3)nc2)C[C@H](C)O1 [Example I-89] | 100 | 100 | – | 100 | 100 | – | 100 | – | 100 | – | – | – | 100 | 80 to 100
11 | C[C@H](NC(=O)c1cc(C(F)(F)F)cc(C(F)(F)F)c1)c1ncnn1-c1ccc(C(=O)N(C)C2COC2)cn1 [Example I-112] | 100 | 100 | – | 100 | 90 | 70 | – | 80 to 100 | – | 100 | 100 | – | – | 80 to 100
12 | C[C@@H]1CN(C(=O)c2cnc(-n3ncnc3[C@H](C)NC(=O)c3cc(C(F)(F)F)cc(C(F)(F)F)c3)cn2)C[C@H](C)O1 [Example I-143] | – | – | – | 100 | – | – | – | – | 100 | 90 | – | – | 100 | –
